Series [1] in a line: Thrombin activation of antibiotic-enriched bovine PRP, visual observation. Type of series: physicochemical. To be noted: for Observation of PRP/Platelet Gel: precipitation or aggregation / Observation of PRP/Platelet Gel: gelling: antibiotic ~75 ug/ml final in bovine PRP, 10% CaCl2 solution, ambient conditions; for Effect on activation of PRP and gel formation / properties of PRP: smaller quantities (sufficient for local application) dissolved in CaCl2 solution, bovine PRP. From the text:
Study Design: This example evaluated the appearance and characteristics of antibiotics-enriched bovine PRP. There were two variables in this study: 1) choice of antibiotics, and 2) presence/absence of thrombin. Two antibiotics were used to couple PRP in this study: 1) Vancomycin and 2) Cefazolin. Thrombin, a common reagent for activation of fibrinogen in PRP (for use as a gel would sealant), was used to activate platelet gel-antibiotics/PRP mixture formation, and compared to a mixture not activated by thrombin.
Preparation of Bovine PRP: 60 ml of Bovine blood (anti-coagulant added) was processed with the Magellan® system to obtain 6 ml of bovine PRP. Bovince PRP was stored in a refrigerator.
Dissolution of Antibiotics in CaCl2 solution: Initial target dose of antibiotics was based on body weight and was estimated at 1.5 mg/kg body weight per unit of PRP, or 105 mg for a 70 kg adult. 3 ml PRP was prepared from 60 ml Bovine Blood with the Magellan® System, resulting in a 2× standard concentration. 105 mg was dissolved into 3 mL of saline solution. 1 ml each of PRP Vancomycin/saline solution were combined to yield a product approximating standard PRP, containing desired amount of Vancomycin.
Vancomycin: To achieve the revised target dose of 75 ug/ml, 5 mg antibiotic was added per 6 ml 10% w/v CaCl2 solution used to reconstitute thrombin for activation of 6 ml PRP.
5 mg Vancomycin hydrochloride (Acros Organics) was dissolved into 6 ml 10% w/v CaCl2 solution at ambient conditions for a concentration of 833 ug/ml. Agitation was necessary to properly dissolve Vancomycin due to its large grain sizes.
Cefazolin: 5 mg Cefazolin hydrochloride (Alexis) was dissolved into 6 ml 10% w/v CaCl2 solution at ambient conditions for a concentration of 833 ug/ml. Slight agitation was necessary to dissolve Cefazolin.
1 kU of bovine thrombin was dissolved into 1 ml of Antibiotic/10% w/v CaCl2 solution or Vancomycin/10% w/v CaCl2 solution.
Preparation of Cefazolin- or Vancomycin-Coupled PRP: 0.6 ml of the bovine thrombin/Vancomycin/10% w/v CaCl2 solution was added to 6 ml of bovine PRP to obtain 6.6 ml of Vancomycin coupled PRP gel to produce an activated gel with a final concentration of ˜75 ug/ml.
For controls, 0.6 ml of the Vancomycin/10% w/v CaCl2 solution (without thrombin) was added to 6 ml of bovine PRP to obtain 6.6 ml of Vancomycin coupled PRP gel to produce an activated gel with a final concentration of ˜75 ug/ml.
Evaluation of Cefazolin- or Vancomycin-Coupled PRP: After mixing, the antibiotic-enriched PRP with and without thrombin were left on bench top. Visual observation was used to evaluate the appearance and characteristics of the mixture material. This process was conducted under ambient conditions.

Test in series [2]: as above
Type of series: physicochemical. To be noted: initial dose 1.05 g per unit PRP, 1 ml of 2× concentration bovine PRP + Vancomycin solution, no thrombin, Hydrochloride.

Where a name gives a salt, the structure may show the parent alone.

As for `CN[C@H](CC(C)C)C(=O)N[C@H]1C(=O)N[C@@H](CC(N)=O)C(=O)N[C@H]2C(=O)N[C@H]3C(=O)N[C@H](C(=O)N[C@H](C(=O)O)c4cc(O)cc(O)c4-c4cc3ccc4O)[C@H](O)c3ccc(c(Cl)c3)Oc3cc2cc(c3O[C@@H]2O[C@H](CO)[C@@H](O)[C@H](O)[C@H]2O[C@H]2C[C@](C)(N)[C@H](O)[C@H](C)O2)Oc2ccc(cc2Cl)[C@H]1O` [Vancomycin, Vancomycin Hydrochloride], the “Observation of PRP/Platelet Gel: precipitation or aggregation” value in series [1] (Thrombin: No) is “white solid precipitates forming upon”. The “Observation of PRP/Platelet Gel: gelling” value in series [1] (Thrombin: Yes) is on record as “Mixture gels immediately within minutes;”. For the same compound, in series [1], the “Effect on activation of PRP and gel formation / properties of PRP” value is “did not interfere with or premarturely initiate activation of PRP and gel formation”. The figures for the “Appearance of PRP combined with antibiotic solution at initial (systemic-order) dose” value in series [2] and in series [2] (listed as vancomycin) were “Immediate aggregation of PRP into a solid” and “rapid formation of heterogenous solids”, respectively.
On to `Cc1nnc(SCC2=C(C(=O)[O-])N3C(=O)[C@@H](NC(=O)Cn4cnnn4)[C@H]3SC2)s1.[Na+]` [Cefazolin, Cefazolin Sodium Salt], for which, in series [1] (Thrombin: Yes), the “Observation of PRP/Platelet Gel: gelling” value is listed as “Mixture gels immediately within minutes,” and the “Observation of PRP/Platelet Gel: precipitation or aggregation” value is recorded as “no precipitation or aggregation observed”. Also, the “Effect on activation of PRP and gel formation / properties of PRP” value in series [1] is recorded as “did not appear to alter the properties PRP”.

For the origin of these results see patent US20100183561A1, “Biological therapeutic compositions and methods thereof” (ARTERIOCYTE MEDICAL SYSTEMS, priority 2008, published 2010).
